ChEMBL document CHEMBL6153165, “Clozapine as an E3 Ligand for PROTAC Technology” (ACS Med Chem Lett, 2025)
Activity calls are given as the source filed them. The calls are words filed in the database; no cut-off is given here.

Columns and labels:
HEK293 [1] = assay: PROTAC activity at E3-ubiquitin ligase/Halo-tagged Brazilian click beetle Emerald luciferase expressed in human HEK293 cells assessed as decrease in Halo-ELuc protein level by measuring Halo-Eluc to beta-actin ratio at 1 uM incubated for 24 hrs by luciferase based Western blotting analysis (reference value: 100%); assay type: cell-based; parameters: scale not given: the % may be the effect or the level left
HEK293 [2] = assay: PROTAC activity at E3-ubiquitin ligase/Halo-tagged Brazilian click beetle Emerald luciferase expressed in human HEK293 cells assessed as decrease in Halo-ELuc protein level by measuring Halo-Eluc to beta-actin ratio at 20 uM incubated for 24 hrs by luciferase based Western blotting analysis (reference value: 100%); assay type: cell-based; parameters: scale not given: the % may be the effect or the level left
HEK293 [3] = assay: PROTAC activity at E3-ubiquitin ligase/Halo-tagged Brazilian click beetle Emerald luciferase expressed in human HEK293 cells assessed as decrease in Halo-ELuc protein level by measuring Halo-Eluc to beta-actin ratio at 0.01 uM incubated for 24 hrs by luciferase based Western blotting analysis (reference value: 100%); assay type: cell-based; parameters: scale not given: the % may be the effect or the level left
HEK293 [4] = assay: PROTAC activity at E3-ubiquitin ligase/Halo-tagged Brazilian click beetle Emerald luciferase expressed in human HEK293 cells assessed as decrease in Halo-ELuc protein level by measuring Halo-Eluc to beta-actin ratio at 10 uM incubated for 24 hrs by luciferase based Western blotting analysis (reference value: 100%); assay type: cell-based; parameters: scale not given: the % may be the effect or the level left
HEK293 [5] = assay: PROTAC activity at E3-ubiquitin ligase/Halo-tagged Brazilian click beetle Emerald luciferase expressed in human HEK293 cells assessed as decrease in Halo-ELuc protein level pretreated with compound followed by 1-chlorohexane addition and measured after 24 hrs by competitive assay; assay type: cell-based
HEK293 [6] = assay: PROTAC activity at E3-ubiquitin ligase/Halo-tagged Brazilian click beetle Emerald luciferase expressed in human HEK293 cells assessed as decrease in Halo-ELuc protein level by measuring Halo-Eluc to beta-actin ratio at 0.1 uM incubated for 24 hrs by luciferase based Western blotting analysis (reference value: 100%); assay type: cell-based; parameters: scale not given: the % may be the effect or the level left
HEK293 [7] = assay: PROTAC activity at E3-ubiquitin ligase/Halo-tagged Brazilian click beetle Emerald luciferase expressed in human HEK293 cells assessed as decrease in Halo-ELuc protein level pretreated with 1-chlorohexane for 2 hrs followed by compound addition and measured after 24 hrs by competitive assay; assay type: cell-based
MCF7 [8] = assay: PROTAC activity at E3-ubiquitin ligase/ER-alpha expressed in UBR4 knockdown human MCF7 cells assessed as induction of ER-alpha degradation by measuring ER-alpha to beta actin ratio at 30 uM incubated for 24 hrs by Western blotting analysis (reference value: 16%); assay type: cell-based
MCF7 [9] = assay: PROTAC activity at E3-ubiquitin ligase/ER-alpha expressed in UBR1 knockdown human MCF7 cells assessed as induction of ER-alpha degradation by measuring ER-alpha to beta actin ratio at 100 uM incubated for 24 hrs by Western blotting analysis (reference value: 100%); assay type: cell-based
MCF7 [10] = assay: PROTAC activity at E3-ubiquitin ligase/ER-alpha expressed in UBR4 knockdown human MCF7 cells assessed as induction of ER-alpha degradation by measuring ER-alpha to beta actin ratio at 100 uM incubated for 24 hrs by Western blotting analysis (reference value: 41%); assay type: cell-based
MCF7 [11] = assay: PROTAC activity at E3-ubiquitin ligase/ER-alpha expressed in human MCF7 cells assessed as decrease in ER-alpha protein level by measuring […] at 0.03 uM incubated for 24 hrs by Western blotting analysis (reference value: 100%); assay type: cell-based; parameters: scale not given: the % may be the effect or the level left
MCF7 [12] = assay: PROTAC activity at E3-ubiquitin ligase/ER-alpha expressed in human MCF7 cells assessed as induction of ER-alpha degradation incubated for 24 hrs in presence of MLN7243 by measuring ER-alpha to beta actin ratio at 100 uM by Western blotting analysis (reference value: 100%); assay type: cell-based
MCF7 [13] = assay: PROTAC activity at E3-ubiquitin ligase/ER-alpha expressed in human MCF7 cells assessed as induction of ER-alpha degradation incubated for 24 hrs by measuring ER-alpha to beta actin ratio at 100 uM by Western blotting analysis (reference value: 100%); assay type: cell-based
MCF7 [14] = assay: Antiproliferative activity against human MCF7 cells assessed as inhibition of cell viability; assay type: functional, cell-based; details: dose 1-100 µM
MCF7 [15] = assay: PROTAC activity at E3-ubiquitin ligase/ER-alpha expressed in UBR5 knockdown human MCF7 cells assessed as induction of ER-alpha degradation by measuring ER-alpha to beta actin ratio at 100 uM incubated for 24 hrs by Western blotting analysis (reference value: 41%); assay type: cell-based
MCF7 [16] = assay: PROTAC activity at E3-ubiquitin ligase/ER-alpha expressed in UBR2 knockdown human MCF7 cells assessed as induction of ER-alpha degradation by measuring ER-alpha to beta actin ratio at 30 uM incubated for 24 hrs by Western blotting analysis (reference value: 100%); assay type: cell-based
MCF7 [17] = assay: PROTAC activity at E3-ubiquitin ligase/ER-alpha expressed in human MCF7 cells assessed as induction of ER-alpha degradation incubated for 24 hrs in presence of MG132 by measuring ER-alpha to beta actin ratio at 100 uM by Western blotting analysis (reference value: 100%); assay type: cell-based
MCF7 [18] = assay: PROTAC activity at E3-ubiquitin ligase/ER-alpha expressed in human MCF7 cells assessed as induction of ER-alpha degradation by measuring ER-alpha to beta actin ratio at 30 uM incubated for 24 hrs by Western blotting analysis (reference value: 100%); assay type: cell-based
MCF7 [19] = assay: PROTAC activity at E3-ubiquitin ligase/ER-alpha expressed in human MCF7 cells assessed as decrease in ER-alpha protein level by measuring […] at 0.3 uM incubated for 24 hrs by Western blotting analysis (reference value: 100%); assay type: cell-based; parameters: scale not given: the % may be the effect or the level left
MCF7 [20] = assay: PROTAC activity at E3-ubiquitin ligase/ER-alpha expressed in UBR5 knockdown human MCF7 cells assessed as induction of ER-alpha degradation by measuring ER-alpha to beta actin ratio at 30 uM incubated for 24 hrs by Western blotting analysis (reference value: 16%); assay type: cell-based
MCF7 [21] = assay: PROTAC activity at E3-ubiquitin ligase/ER-alpha expressed in human MCF7 cells assessed as induction of ER-alpha degradation incubated for 24 hrs by measuring ER-alpha to beta actin ratio at 30 uM by Western blotting analysis (reference value: 100%); assay type: cell-based
MCF7 [22] = assay: PROTAC activity at E3-ubiquitin ligase/ER-alpha expressed in UBR1 knockdown human MCF7 cells assessed as induction of ER-alpha degradation by measuring ER-alpha to beta actin ratio at 30 uM incubated for 24 hrs by Western blotting analysis (reference value: 100%); assay type: cell-based
MCF7 [23] = assay: PROTAC activity at E3-ubiquitin ligase/ER-alpha expressed in human MCF7 cells assessed as decrease in ER-alpha protein level by measuring […] at 30 uM incubated for 24 hrs by Western blotting analysis (reference value: 100%); assay type: cell-based; parameters: scale not given: the % may be the effect or the level left
MCF7 [24] = assay: PROTAC activity at E3-ubiquitin ligase/ER-alpha expressed in human MCF7 cells assessed as decrease in ER-alpha protein level by measuring […] at 100 uM incubated for 24 hrs by Western blotting analysis (reference value: 100%); assay type: cell-based; parameters: scale not given: the % may be the effect or the level left
MCF7 [25] = assay: PROTAC activity at E3-ubiquitin ligase/ER-alpha expressed in human MCF7 cells assessed as decrease in ER-alpha protein level by measuring […] at 0.1 uM incubated for 24 hrs by Western blotting analysis (reference value: 100%); assay type: cell-based; parameters: scale not given: the % may be the effect or the level left
MCF7 [26] = assay: PROTAC activity at E3-ubiquitin ligase/ER-alpha expressed in human MCF7 cells assessed as decrease in ER-alpha protein level by measuring […] at 3 uM incubated for 24 hrs by Western blotting analysis(reference value: 100%); assay type: cell-based; parameters: scale not given: the % may be the effect or the level left
MCF7 [27] = assay: PROTAC activity at E3-ubiquitin ligase/ER-alpha expressed in human MCF7 cells assessed as induction of ER-alpha degradation incubated for 24 hrs in presence of MG132 by measuring ER-alpha to beta actin ratio at 30 uM by Western blotting analysis (reference value: 100%); assay type: cell-based
MCF7 [28] = assay: PROTAC activity at E3-ubiquitin ligase/ER-alpha expressed in human MCF7 cells assessed as induction of ER-alpha degradation by measuring ER-alpha to beta actin ratio at 100 uM incubated for 24 hrs by Western blotting analysis (reference value: 100%); assay type: cell-based
MCF7 [29] = assay: PROTAC activity at E3-ubiquitin ligase/ER-alpha expressed in UBR2 knockdown human MCF7 cells assessed as induction of ER-alpha degradation by measuring ER-alpha to beta actin ratio at 100 uM incubated for 24 hrs by Western blotting analysis (reference value: 100%); assay type: cell-based
MCF7 [30] = assay: PROTAC activity at E3-ubiquitin ligase/ER-alpha expressed in human MCF7 cells assessed as decrease in ER-alpha protein level by measuring ER-alpha to beta actin ratio at 30 uM incubated for 24 hrs Western blotting analysis (reference value: 100%); assay type: cell-based; parameters: scale not given: the % may be the effect or the level left
MCF7 [31] = assay: PROTAC activity at E3-ubiquitin ligase/ER-alpha expressed in human MCF7 cells assessed as induction of ER-alpha degradation incubated for 24 hrs in presence of MLN7243 by measuring ER-alpha to beta actin ratio at 30 uM by Western blotting analysis (reference value: 100%); assay type: cell-based
MCF7 [32] = assay: PROTAC activity at E3-ubiquitin ligase/ER-alpha expressed in human MCF7 cells assessed as decrease in ER-alpha protein level by measuring […] at 1 uM incubated for 24 hrs by Western blotting analysis (reference value: 100%); assay type: cell-based; parameters: scale not given: the % may be the effect or the level left
MCF7 [33] = assay: PROTAC activity at E3-ubiquitin ligase/ER-alpha expressed in human MCF7 cells assessed as decrease in ER-alpha protein level by measuring […] at 10 uM incubated for 24 hrs by Western blotting analysis (reference value: 100%); assay type: cell-based; parameters: scale not given: the % may be the effect or the level left
MCF7 [34] = assay: Induction of ER-alpha degradation (unknown origin) at 30 uM in presence of 4-OHT by measuring ER-alpha to beta actin ratio incubated for 24 hrs Western blotting analysis (reference value: 100%); assay type: cell-based; details: Homo sapiens
MCF7 [35] = assay: Induction of ER-alpha degradation (unknown origin) at 30 uM by measuring ER-alpha to beta actin ratio incubated for 24 hrs Western blotting analysis (reference value: 100%); assay type: cell-based; details: Homo sapiens

## ClCCCCCCOCCOCCN1CCN(C2=Nc3cc(Cl)ccc3Nc3ccccc32)CC1
HEK293 [1]
  Activity: 57%
HEK293 [2]
  Activity: 22%
HEK293 [3]
  Activity: 103%
HEK293 [4]
  Activity: 32%
HEK293 [5]
  Activity: Not active; Complete Recovery Of Luminescence Not Observed
HEK293 [6]
  Activity: 97%
HEK293 [7]
  Activity: inactive

## CC/C(=C(/c1ccc(O)cc1)c1ccc(OCCN(C)C(=O)CCC(=O)NCCOCCOCCOCCN2CCN(C3=Nc4cc(Cl)ccc4Nc4ccccc43)CC2)cc1)c1ccccc1
MCF7 [8]
  Activity: 1%
MCF7 [9]
  Activity: 28%
MCF7 [10]
  Activity: 21%
MCF7 [11]
  Activity: 122%
MCF7 [12]
  Activity: 104%
MCF7 [13]
  Activity: 27%
MCF7 [14]
  Activity: Dose-dependent-effect
MCF7 [15]
  Activity: 51%
MCF7 [16]
  Activity: 27%
MCF7 [17]
  Activity: 152%
MCF7 [18]
  Activity: 16%
MCF7 [19]
  Activity: 148%
MCF7 [20]
  Activity: 45%
MCF7 [21]
  Activity: 51%
MCF7 [22]
  Activity: 14%
MCF7 [23]
  Activity: 42%
MCF7 [24]
  Activity: 33%
MCF7 [25]
  Activity: 132%
MCF7 [26]
  Activity: 160%
MCF7 [27]
  Activity: 163%
MCF7 [28]
  Activity: 41%
MCF7 [29]
  Activity: 40%
MCF7 [30]
  Activity: 37%
MCF7 [31]
  Activity: 121%
MCF7 [32]
  Activity: 160%
MCF7 [33]
  Activity: 116%

## CN1CCN(C2=Nc3cc(Cl)ccc3Nc3ccccc32)CC1
MCF7 [34]
  Activity: 91%
MCF7 [35]
  Activity: 104%

## CC/C(=C(\c1ccc(O)cc1)c1ccc(OCCN(C)C)cc1)c1ccccc1
MCF7 [35]
  Activity: 116%
